Measurements: patent publication EP0614887B1, “Indole-sulfonamides as antitumor agents” (ELI LILLY AND COMPANY, priority 1993, dated 1994)

Columns and labels:
[1] = system: VRC5 human colon adenocarcinomas; assay: Antitumor activity in mice bearing human colon xenograft VRC5, oral dosing; format: in vivo, CD1 Nu/Nu mice; details: VRC5 tumor, daily for 10 days; for Percent Inhibition: inhibition of tumor growth vs control; for Toxic/Total: mice which died / total animals in group
Source text: One of the tumor models used for showing the anti-neoplastic activity of the sulfonylureas of this invention was the human colon xenograft VRC5. J.A. Houghton and D.M. Taylor, British Journal of Cancer, 37:213-223 (1978). This tumor was obtained from St. Jude's Children's Research Hospital and has been widely used as a human tumor model.
(§1) First passage tumors were stored in liquid nitrogen, using standard techniques. The transplanted tumor was reestablished from the Tumor Bank every six months or as needed. The tumor was maintained by serial passage twice weekly in the host mice.
(§2) In the procedures utilized here, the tumor was removed from passage animals and minced into cubic fragments having 1 to 3 mm edges using sterile techniques. Tumor pieces were checked for sterility using both Antibiotic Medium 1 and Brain Heart Infusion (Difco, Detroit, Michigan). The xenograft tumor pieces were implanted into the recipient CD1 Nu/Nu mice subcutaneously in an axillary site by trochar. The allograft 6C3HED tumor pieces were implanted into the recipient C3H mice in an analogous fashion.
(§3) Drug therapy on the appropriate schedule was initiated seven days after tumor implantation for the mice bearing the xenograft tumors, one day after implantation for the mice bearing the 6C3HED lymphosarcoma. The compound being tested was mixed with 2.5% Emulphor EL620 from GAF Corporation (1:40 dilution in 0.9% saline). The total dosage volume for each administration was 0.5 ml. All animals were weighed at the beginning and end of administration of the subject compounds. Food and water were provided ad libitum.
(§4) Each control group and each dosage level of the treated groups consisted of 9 or 10 mice selected at random from the pool of implanted animals. The formulations were administered orally by gavage with the use of an 18-gauge needle. Compounds were dosed daily for 10 days for the studies using the human tumor xenografts and 8 days for the studies using the allograft.
(§5) The tumor was measured five days after treatment ended with two dimensional measurements (width and length) of the tumor taken using digital electronic calipers interfaced to a microcomputer. J.F. Worzalla, et al., Investigational New Drugs, 8:241-251 (1990). Tumor weights were calculated from these measurements using the following formula: Tumor weight (mg) =[…] [formula] At least one control group of an equal number of mice was treated with the same volume of 2.5% Emulphor only. The percent inhibition is determined by subtracting the ratio of the mean tumor size of the test group relative to the control group from one and multiplying the result by 100.
(§6) The results of several experiments in mice bearing the VRC5 human colon adenocarcinomas, and the 6C3HED lymphosarcoma when the Formula I compounds were administered orally are provided in Table I. In the table, Column 1 refers to the example number of the compound tested; Column 2 describes the particular human tumor xenograft or mouse allograft being studied; Column 3 gives the dosage level of the compound of Formula I in milligrams per kilogram of body weight; Column 4 describes the percent inhibition of tumor growth; and Column 5 tallies the number of mice which died during the course of the experiment relative to the total number of animals in the group.

6C3HED lymphosarcoma = assay: Antitumor activity in mice bearing allograft 6C3HED lymphosarcoma, oral dosing; format: in vivo, C3H mice; details: 6C3HED tumor, daily for 8 days; for Percent Inhibition: inhibition of tumor growth vs control; for Toxic/Total: mice which died / total animals in group
Source text: Another tumor model employed C3H mice bearing the widely used allograft 6C3HED lymphosarcoma, also known as the Gardner lymphosarcoma (GLS). The 6C3HED lymphosarcoma was obtained from the Division of Cancer Treatment, National Cancer Institute, Tumor Bank, maintained at E. G. and G. Mason Research (Worcester, Massachusetts).
as §1, §2, §3, §4, §5, §6

Row | Molecule | Percent Inhibition ([1]; 20 mg/kg orally by gavage) [%] | Toxic/Total ([1]; 20 mg/kg orally) | Percent Inhibition ([1]; 40 mg/kg orally by gavage) [%] | Toxic/Total ([1]; 40 mg/kg orally) | Percent Inhibition ([1]; 80 mg/kg orally by gavage) [%] | Toxic/Total ([1]; 80 mg/kg orally) | Percent Inhibition (6C3HED lymphosarcoma; 280 mg/kg orally by gavage) [%] | Toxic/Total (6C3HED lymphosarcoma; 280 mg/kg orally) | Percent Inhibition (6C3HED lymphosarcoma; 450 mg/kg orally by gavage) [%] | Toxic/Total (6C3HED lymphosarcoma; 450 mg/kg orally) | Percent Inhibition (6C3HED lymphosarcoma; 900 mg/kg orally by gavage) [%] | Toxic/Total (6C3HED lymphosarcoma; 900 mg/kg orally)
1 | N-[[(3,4-dichlorophenyl)amino]carbonyl]-1-methyl-1H-indole-5-sulfonamide [Example 3] | 81 | 1/9 | 95 | 1/10 | 100 | 0/10 |  |  |  |  |  | 
2 | O=C(Nc1ccc(Cl)cc1)NS(=O)(=O)c1ccc2c(c1)CCN2 [Example 1, N-[[(4-chlorophenyl)amino]carbonyl]-2,3-dihydro-1H-indole-5-sulfonamide] |  |  |  |  |  |  | 44 | 0/9 |  |  |  | 
3 | O=C(Nc1ccc(Cl)c(Cl)c1)NS(=O)(=O)c1ccc2c(c1)CCN2 [Example 2, N-[[(3,4-dichlorophenyl)amino]carbonyl]-2,3-dihydro-1H-indole-5-sulfonamide] | 18 | 0/9 | 56 | 0/9 |  |  |  |  | 100 | 0/10 | 100 | 1/10
